Tests used:
[1] = system: Cdk7; test: Western blotting of Cdk7 activity (phospho RNA Pol II Ser 5); format: cell-based, human; details: 0 nM = 100
Protocol: After treating the compound of Example 2 to SNU-354 cells, cell pellet was lysed with lysis buffer (0.5% triton X-100, 20 mM Tris-HCl (pH 7.5), 2 mM magnesium chloride, 1 mM DTT, 1 mM EGTA, 50 mM β-glycerophosphate, 25 mM sodium fluoride, 1 mM Na3VO4, 2 μg/mL leupeptin, 2 μg/mL pepstatin A, 100 μg/mL phenylmethylsulfonyl fluoride, and 1 μg/mL antipain) at 4° C. for 1 hour, followed by quantification of protein. A proper amount of protein was electrophoresed on SDS-PAGE gel and then transferred onto polyvinylidene difluoride membrane (Millipore Co., Bedford, Mass.). The membrane was reacted in inhibiting solution (PBS, 5% skim milk, 0.1% tween-20) at room temperature for 1˜2 hours. The membrane was reacted with the primary antibody (goat anti-phospho-Rb, rabbit anti-nucleolin) diluted in the inhibiting solution (1:1000). Then, the membrane was washed with PBST, followed by reaction with the proper secondary antibody (horseradish peroxidase (HRP) conjugated) at room temperature for 1 hour.
Experiment was performed by the same manner as described in step 2 of Experimental Example 1 except that rabbit anti-phospho RNA Pol II (Ser 5) and rabbit anti-phospho RNA Pol II (Ser 2) (from Bethyl, TX, USA) were used as primary antibodies. The results are shown FIG. 9˜FIG. 12, and Table 4 and Table 5.

[2] = system: SNU-354 cells; test: 3H-thymidine incorporation assay; format: cell-based, human; details: 18˜24 hours
Protocol: SNU-354 cells were distributed in a 6-well plate at the density of 5×10^4 cells/well, followed by culture in FBS-free medium for 24 hours. 24 hours later, the medium was replaced with the fresh one supplemented with FBS, the compounds of Examples 1 and 2 at different concentrations and 1 μCi/mL [^3H]dT (GE Healthcare, UK). 18˜24 hours later, the cells were washed with cold PBS and then fixed with cold 5% trichloroacetic acid. DNA was lysed in […] sodium hydroxide at 37° C. for 1 hour. Then, [^3H]dT incorporated during intracellular DNA synthesis was measured by LSC (liquid scintillation counting). Intracellular DNA synthesis measured above was used as index for the evaluation of cell viability.

[3] = biological target: T1, Cdk9/cyclin T1 (Homo sapiens, UniProt P50750); test: In vitro kinase assay of Cdk9, RNA Pol II-CTD-GST substrate; format: biochemical; details: 0 nM = 100
T1 construct: purchased Upstate
T1 sequence (P50750 whole entry): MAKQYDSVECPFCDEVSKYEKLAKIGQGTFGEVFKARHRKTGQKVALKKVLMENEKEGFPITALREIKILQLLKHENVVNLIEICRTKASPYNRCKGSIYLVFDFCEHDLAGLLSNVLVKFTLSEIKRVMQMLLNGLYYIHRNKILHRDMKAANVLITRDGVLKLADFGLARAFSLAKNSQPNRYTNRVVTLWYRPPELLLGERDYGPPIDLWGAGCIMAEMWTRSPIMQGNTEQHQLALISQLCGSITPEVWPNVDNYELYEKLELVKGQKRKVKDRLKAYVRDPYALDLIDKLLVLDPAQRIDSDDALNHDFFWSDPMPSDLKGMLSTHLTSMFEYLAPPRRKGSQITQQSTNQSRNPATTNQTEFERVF
T1 sequence (O60563 whole entry partner): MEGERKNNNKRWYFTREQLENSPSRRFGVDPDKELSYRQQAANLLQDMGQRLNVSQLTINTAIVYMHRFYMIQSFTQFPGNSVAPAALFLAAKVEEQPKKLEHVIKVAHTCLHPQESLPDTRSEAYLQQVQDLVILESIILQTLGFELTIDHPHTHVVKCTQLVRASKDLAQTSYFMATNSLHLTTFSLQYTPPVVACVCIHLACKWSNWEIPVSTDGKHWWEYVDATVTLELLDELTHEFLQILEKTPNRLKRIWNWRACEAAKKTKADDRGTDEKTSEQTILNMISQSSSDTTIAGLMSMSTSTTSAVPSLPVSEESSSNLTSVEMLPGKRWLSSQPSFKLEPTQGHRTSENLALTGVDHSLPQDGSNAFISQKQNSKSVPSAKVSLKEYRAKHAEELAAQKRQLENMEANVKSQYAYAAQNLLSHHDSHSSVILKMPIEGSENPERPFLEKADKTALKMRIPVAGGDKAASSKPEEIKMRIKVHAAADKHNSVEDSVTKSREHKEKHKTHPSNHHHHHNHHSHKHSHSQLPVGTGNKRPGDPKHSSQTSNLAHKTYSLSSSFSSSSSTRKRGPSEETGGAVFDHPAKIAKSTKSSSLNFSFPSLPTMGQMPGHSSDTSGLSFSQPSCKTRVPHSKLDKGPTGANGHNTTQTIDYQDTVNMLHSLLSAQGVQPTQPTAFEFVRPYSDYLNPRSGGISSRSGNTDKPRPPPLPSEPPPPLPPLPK
Protocol: To kinase assay buffer were added RNA Pol II-CTD-GST protein (Jena Bioscience, Germany) as a substrate, Cdk9/cyclin T1 or Cdk7/cyclin H/MAT1 recombinant protein (Upstate) as an enzyme, 2.5 μCi [γ-32P]ATP, and 100 μM MgAc/ATP. The total reaction volume was adjusted to 50 μl. Kinase assay reaction was induced at 30° C. for 20 minutes. Upon completion of the reaction, electrophoresis was performed on 8% SDS-polyacrylamide gel. The activities of Cdk7 and Cdk9 over the concentrations of the compounds of Example 1 and Example 2 were confirmed by autoradiography and the results are shown in FIG. 5˜FIG. 8 and Table 3.
The intensity of bands was analyzed by densitometry (GS-800, Bio-Rad).

[4] = system: caspase-3 activity in SNU-354 cells; test: Measurement of caspase-3 activity (Experimental Example 4); format: cell-based, human; set-up: unit not given here
Protocol: SNU-354 cells treated with the compounds of Example 1˜Example 6 were lysed with lysis buffer (0.5% triton X-100, 20 mM Tris-HCl (pH 7.5), 2 mM magnesium chloride, 1 mM DTT, 1 mM EGTA, 50 mM β-glycerophosphate, 25 mM sodium fluoride, 1 mM Na3VO4, 2 μg/mL leupeptin, 2 μg/mL pepstatin A, 100 μg/mL phenylmethylsulfonyl fluoride, 1 μg/mL antipain). The protease analysis buffer necessary for the reaction (20 mM HEPES (pH 7.5), 10% glycerol, 2 mM DTT) was mixed with 20 μM Ac-DEVD-AMC (BD Biosciences, CA, USA) and cell lysates, followed by reaction at 37° C. for 1 hour. Upon completion of the reaction, caspase-3 activity was measured at 380 nm of excitation and 460 nm of emission with spectrofluorometer (TECAN, Switzerland) and the results are shown in FIG. 25 and Table 12.

[5] = system: SNU-354 cells; test: MTT assay, cell viability; format: cell-based; details: Homo sapiens, SNU-354, read-out: Cell viability (%)
Protocol: Cell viability was measured by MTT assay. SNU-354 cells in the log phase of cell growth curve were distributed in a 24-well plate at the density of 2×10^4 cells/well. […] After allowing enough time for reaction, MTT reagent (MTT dissolved in PBS at the concentration of 5 mg/mL) (Sigma-Aldrich, USA) was added to each well, followed by reaction at 37° C. for 3 hours. Then, the supernatant was eliminated and the precipitated formazan crystals were dissolved in dimethyl sulfoxide, followed by measurement of absorbance with ELISA plate reader.

[6] = system: SNU-354 cells; test: FACS analysis of sub G1 ratio (Experimental Example 1-6-3); format: cell-based, human
Protocol: The cells were collected and washed with cold PBS, followed by reaction in 500 μl of cold 70% ethanol at 4° C. for overnight to fix the cells. The cells were washed with 500 μl of PBS three times, followed by reaction with 500 μl of PBS containing 50 μg/mL propidium iodide (P1) and 50 μl of 1 mg/mL RNAse A at room temperature for 30 minutes in the darkness. Fluorescence of the P1 stained cell was measured by using caliber flow cytometer and cell quest program (Becton Dickinson Immunocytometry Systems, CA, USA). Sub G1 ratio changes of HCC SNU-354 cells induced by the compounds of Examples 1 and 2 were measured by FACS analysis. The results are shown in FIG. 19, FIG. 20, Table 9 and Table 10.

Compound	Cdk7 activity ([1]; 0.1 nM)	Cdk7 activity ([1]; 0.5 nM)	Cdk7 activity ([1]; 1 nM)	Cdk7 activity ([1]; 5 nM)	Cdk7 activity ([1]; 10 nM)	Cdk7 activity ([1]; 50 nM)	^3H-thymidine incorporation (%) ([2]; 5.0 μM)	^3H-thymidine incorporation (%) ([2]; 10.0 μM)	^3H-thymidine incorporation (%) ([2]; 50.0 μM)	Cdk9 activity ([3]; 10 nM)	Cdk9 activity ([3]; 100 nM)	Cdk9 activity ([3]; 1000 nM)	Caspase-3 activity ([4]; 5 μM)	Caspase-3 activity ([4]; 10 μM)	viability at 0.5 µM [5]	viability at 1 µM [5]	viability at 2 µM [5]	viability at 5 µM [5]	viability at 10 µM [5]	viability at 50 µM [5]	other results
NC(=O)c1c(Br)nc2n([C@H]3O[C@@H](CO)[C@H](O)[C@H]3O)cnc(N)c1-2 [Example 1, 4-amino-6-bromo-1-((2S,3R,4R,5S)-3,4-dihydroxy-5-(hydroxymethyl)-tetrahydrofuran-2-yl)-1H-pyrrolo[2,3-d]pyrimidine-5-carboxamide]	90.1%	76.3%	37.6%	3.0%	1.7%	0.3%	84.0%	35.2%	15.8%	15.8%	1.0%	0.1%	8.4	8.1	96.4%	84.3%	74%	68%	55.6%	36.6%	sub G1 ratio (%) ([6]; 0.1 μM, 24 hours, 0 μM = 3.0): 2.7%; sub G1 ratio (%) ([6]; 0.5 μM, 24 hours, 0 μM = 3.0): 3.2%; sub G1 ratio (%) ([6]; 1 μM, 24 hours, 0 μM = 3.0): 3.5%; sub G1 ratio (%) ([6]; 5 μM, 24 hours, 0 μM = 3.0): 28.1%; sub G1 ratio (%) ([6]; 10 μM, 24 hours, 0 μM = 3.0): 64.2%; sub G1 ratio (%) ([6]; 50 μM, 24 hours, 0 μM = 3.0): 71.1%; sub G1 ratio (%) ([6]; 50 μM, time 6 h, 0 h = 10.3): 29.1%; sub G1 ratio (%) ([6]; 50 μM, time 12 h, 0 h = 10.3): 51.8%; sub G1 ratio (%) ([6]; 50 μM, time 18 h, 0 h = 10.3): 71.7%; sub G1 ratio (%) ([6]; 50 μM, time 24 h, 0 h = 10.3): 78.1%; concentration at which sub G1 ratio was rapidly increased ([6]; 24 hours): 5 µM
CC(C)C(=O)OC[C@@H]1O[C@H](n2cnc(N)c3c(C(N)=O)c(Br)nc2-3)[C@H](O)[C@H]1O [Example 2, ((2S,3R,4R,5S)-5-(4-amino-6-bromo-5-carbamoyl-1H-pyrrolo[2,3-d]pyrimidin-1-yl)-3,4-dihydroxy-tetrahydrofuran-2-yl)methyl isobutyrate]	88.4%	44.0%	12.7%	3.3%	1.6%	0.6%	50.7%	20.4%	8%	95.4%	40.5%	3.3%	9.7	11.0	86.3%	75.5%	64.7%	47.6%	35.4%	16.8%	sub G1 ratio (%) ([6]; 0.1 μM, 24 hours, 0 μM = 3.0): 3.8%; sub G1 ratio (%) ([6]; 0.5 μM, 24 hours, 0 μM = 3.0): 39.6%; sub G1 ratio (%) ([6]; 1 μM, 24 hours, 0 μM = 3.0): 52.0%; sub G1 ratio (%) ([6]; 5 μM, 24 hours, 0 μM = 3.0): 69.8%; sub G1 ratio (%) ([6]; 10 μM, 24 hours, 0 μM = 3.0): 72.6%; sub G1 ratio (%) ([6]; 50 μM, 24 hours, 0 μM = 3.0): 73.1%; sub G1 ratio (%) ([6]; 50 μM, time 6 h, 0 h = 10.3): 51.6%; sub G1 ratio (%) ([6]; 50 μM, time 12 h, 0 h = 10.3): 67.6%; sub G1 ratio (%) ([6]; 50 μM, time 18 h, 0 h = 10.3): 72.3%; sub G1 ratio (%) ([6]; 50 μM, time 24 h, 0 h = 10.3): 81.2%; concentration at which sub G1 ratio was rapidly increased ([6]; 24 hours): 0.5 µM

From patent US9062088B2, “CDK-inhibiting pyrrolopyrimidine carboxamide derivative or pharmaceutically acceptable salt thereof, and pharmaceutical composition containing the same as active ingredient for preventing or treating hepatocellular carcinoma” (SNU R&DB Foundation, priority 2010, dated 2015)
